The subject of one data set is replicon cells (1b-Con1). Put plainly: microbe, parasite or virus in culture. Particulars: Hepatitis C virus, 72 h; 1b-Con1 replicon cells, three days post-dosing, Taqman RT-PCR with GAPDH RNA as control. Type of data set: cell-based, HCV.
In the next data set the test system is replicon cells. Particulars: CC50, MTS assay three days post dosing in replicon cells.
The target of data set [1] is T1, HCV NS5B RNA-dependent RNA polymerase (1b-BKΔ55) (Hepatitis C virus genotype 1b, UniProt P26663).
T1 construct: 5 nM NS5B (1b-BKΔ55) enzyme
The data set can be described thus: Inhibition of HCV NS5B polymerase by nucleoside triphosphate analogs (radiolabeled nucleotide incorporation assay). Type of data set: biochemical. As for the experimental part:
To measure inhibition of the enzymatic activity of the HCV NS5B RNA-dependent RNA polymerase by the nucleoside triphosphate compounds of the present invention, a radiolabeled nucleotide incorporation assay was used. This assay is a modified version of the assay described in International Publication No. WO2002/057287. Briefly, 50 μL reactions containing 20 mM HEPES (pH 7.3); 7.5 mM DTT; 20 units/ml RNasIN; 1 μM each of ATP, GTP, UTP and CTP; 20 μCi/mL [^33P]-CTP; 10 mM MgCl; 60 mM NaCl; 100 μg/ml BSA; […] heteropolymer RNA template; and 5 nM NS5B (1b-BKΔ55) enzyme are incubated at room temperature for 1 hour. The assay is then terminated by the addition of 500 mM EDTA (50 μl). The reaction mixture is transferred to a Millipore DE81 filter plate and the incorporation of labeled CTP is determined using Packard TopCount. Compound IC50 values can then be calculated from experiments with 10 serial 3-fold dilutions of the inhibitor in duplicate.
Data was obtained using this method for the NTP analogs of selected compounds below of the present invention, and is set forth below. […] Data is also presented for comparative compounds, labeled as Compound B and Compound C.

T1 sequence (P26663 2420-2955, stated change not applied): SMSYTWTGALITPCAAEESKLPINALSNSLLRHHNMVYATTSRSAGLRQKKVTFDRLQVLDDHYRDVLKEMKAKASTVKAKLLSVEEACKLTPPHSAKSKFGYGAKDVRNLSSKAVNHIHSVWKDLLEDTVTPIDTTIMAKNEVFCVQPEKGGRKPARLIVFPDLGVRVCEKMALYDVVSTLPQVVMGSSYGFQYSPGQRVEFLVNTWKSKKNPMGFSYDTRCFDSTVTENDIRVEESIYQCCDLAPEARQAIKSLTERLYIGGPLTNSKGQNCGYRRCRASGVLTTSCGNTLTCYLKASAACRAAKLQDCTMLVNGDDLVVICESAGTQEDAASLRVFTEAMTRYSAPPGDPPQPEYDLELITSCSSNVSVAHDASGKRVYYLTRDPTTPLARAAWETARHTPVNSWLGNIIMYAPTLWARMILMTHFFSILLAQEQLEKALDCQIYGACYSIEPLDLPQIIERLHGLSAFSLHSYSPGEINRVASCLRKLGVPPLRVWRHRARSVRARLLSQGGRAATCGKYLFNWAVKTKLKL

In turn, `CCCCC(=O)O[C@@H]1[C@@H](COP(=O)(N[C@@H](C)C(=O)OC(C)C)Oc2ccccc2)O[C@@H](n2ccc(=O)[nH]c2=O)[C@]1(C)C#N` (some centres unmarked) [Compound 28] came in with an EC50 in the data set on replicon cells (1b-Con1) of 0.7 µM. This compound also displayed a Cytotoxicity in the data set with replicon cells of 76 µM.
On to `C[C@@]1(N)[C@H](O)[C@@H](COP(=O)(O)OP(=O)(O)OP(=O)(O)O)O[C@H]1n1ccc(=O)[nH]c1=O` [Compound 35], for which the affinity in data set [1] corresponds to a Ki of 4.7 µM.
For `CC(C)OC(=O)[C@H](C)NP(=O)(OC[C@H]1O[C@@H](n2ccc(=O)[nH]c2=O)[C@](C)(C#N)[C@@H]1OC(=O)C1CC1)Oc1ccccc1` (some centres unmarked) [Compound 24], in the data set with replicon cells (1b-Con1), a half-maximal response (EC50) required 6.3 µM. Further, the Cytotoxicity in the data set on replicon cells was >100 µM.
`CC(C)OC(=O)[C@H](C)N[P@@](=O)(OC[C@H]1OC(n2ccc(NC(=O)C(C)C)nc2=O)[C@](C)(C#N)[C@@H]1O)Oc1ccccc1` (some centres unmarked) [Compound 10] gave an EC50 with replicon cells (1b-Con1) of 9.5 µM. Also, the Cytotoxicity in the data set with replicon cells worked out at 10 µM.
The matching figures for `CCCCCCCCCCCCCCCCCC(=O)Nc1ccn(C2O[C@H](CO[P@](=O)(N[C@@H](C)C(=O)OC(C)C)Oc3ccccc3)[C@@H](O)[C@@]2(C)C#N)c(=O)n1` (some centres unmarked) [Compound 11]: 1.8 µM and 25 µM.
In turn, `CCCCCCCCCCCCCCCCCC(=O)O[C@@H]1[C@@H](COP(=O)(N[C@@H](C)C(=O)OC(C)C)Oc2ccccc2)O[C@@H](n2ccc(N)nc2=O)[C@]1(C)N=[N+]=[N-]` (some centres unmarked) [Compound 17] registered an EC50 in the data set on replicon cells (1b-Con1) of 8.2 µM. For the same compound, the Cytotoxicity in the data set on replicon cells is 9.9 µM.
`C#C[C@]1(C)[C@H](O)[C@@H](COP(=O)(O)OP(=O)(O)OP(=O)(O)O)O[C@H]1n1ccc(=O)[nH]c1=O` [Compound 36] returned a Ki in data set [1] of 11 µM.
As to `CC(C)NC(=O)O[C@@H]1[C@@H](COP(=O)(N[C@@H](C)C(=O)OC(C)C)Oc2ccccc2)O[C@@H](n2ccc(=O)[nH]c2=O)[C@]1(C)C#N` (some centres unmarked) [Compound 27], in the data set with replicon cells (1b-Con1), the EC50 is > 100 µM. The Cytotoxicity in the data set with replicon cells is >100 µM.
The like results for `CC(C)OC(=O)[C@H](C)NP(=O)(OC[C@H]1O[C@@H](n2ccc(=O)[nH]c2=O)[C@](C)(C#N)[C@@H]1OC(=O)C(C)C)Oc1ccccc1` (some centres unmarked) [Compound 23] were, in that order, 0.7 µM and >100 µM.
The matching figures for `CC(C)OC(=O)O[C@@H]1[C@@H](COP(=O)(N[C@@H](C)C(=O)OC(C)C)Oc2ccccc2)O[C@@H](n2ccc(=O)[nH]c2=O)[C@]1(C)C#N` (some centres unmarked) [Compound 26]: 1 µM and >100 µM.
The like results for `CCCCCCCCCCCCCCCCCC(=O)O[C@@H]1[C@@H](CO[P@](=O)(N[C@@H](C)C(=O)OC(C)C)Oc2ccccc2)OC(n2ccc(N)nc2=O)[C@]1(C)C#N` (some centres unmarked) [Compound 8] were, in that order, 5.09 µM and 6.54 µM.
On to `CC(C)OC(=O)[C@H](C)NP(=O)(OC[C@H]1O[C@@H](n2ccc(NC(=O)C(C)C)nc2=O)[C@](C)(C#N)[C@@H]1OC(=O)C(C)C)Oc1ccccc1` (some centres unmarked) [Compound 12], for which, in the data set with replicon cells (1b-Con1), the EC50 is 10 µM. The same compound had a Cytotoxicity with replicon cells of 76 µM.
The like results for `CC(C)OC(=O)[C@H](C)N[P@@](=O)(OC[C@H]1OC(n2ccc(N)nc2=O)[C@](C)(C#N)[C@@H]1OC(=O)C(C)C)Oc1ccccc1` (some centres unmarked) [Compound 7] were, in that order, 0.425 µM and >100 µM.
The matching figures for `CCCC(CCC)C(=O)O[C@@H]1[C@@H](COP(=O)(N[C@@H](C)C(=O)OC(C)C)Oc2ccccc2)O[C@@H](n2ccc(=O)[nH]c2=O)[C@]1(C)C#N` (some centres unmarked) [Compound 29]: 0.19 µM and 20 µM.
Compound `CCCCCCCCCCCCCCCCCC(=O)Nc1ccn([C@@H]2O[C@H](COP(=O)(N[C@@H](C)C(=O)OC(C)C)Oc3ccccc3)[C@@H](O)[C@@]2(C)N=[N+]=[N-])c(=O)n1` (some centres unmarked) [Compound 20] showed an EC50 in the data set with replicon cells (1b-Con1) of 3.6 µM. Further, the Cytotoxicity in the data set with replicon cells is >100 µM.
For `CC(C)OC(=O)[C@H](C)NP(=O)(OC[C@H]1O[C@@H](n2ccc(NC(=O)C(C)C)nc2=O)[C@](C)(N=[N+]=[N-])[C@@H]1OC(=O)C(C)C)Oc1ccccc1` (some centres unmarked) [Compound 18], a half-maximal effect in the data set with replicon cells (1b-Con1) (EC50) was put at 15 µM. In addition, in the data set on replicon cells, the Cytotoxicity is >100 µM.
The matching figures for `CCCC(CCC)C(=O)O[C@@H]1[C@@H](COP(=O)(N[C@@H](C)C(=O)OC(C)C)Oc2ccccc2)O[C@@H](n2ccc(N)nc2=O)[C@]1(C)N=[N+]=[N-]` (some centres unmarked) [Compound 16]: 0.1 µM and 13 µM.
The matching figures for `CC(C)OC(=O)[C@H](C)NP(=O)(OC[C@H]1O[C@@H](n2ccc(N)nc2=O)[C@](C)(N=[N+]=[N-])[C@@H]1OC(=O)C(C)C)Oc1ccccc1` (some centres unmarked) [Compound 15]: 0.6 µM and >100 µM.
The matching figures for `CC(C)OC(=O)[C@H](C)NP(=O)(OC[C@H]1O[C@@H](n2ccc(NC(=O)C(C)C)nc2=O)[C@](C)(N=[N+]=[N-])[C@@H]1O)Oc1ccccc1` (some centres unmarked) [Compound 19]: 8.5 µM and >100 µM.
For `CCCCCCCCCCCCCCCCCC(=O)Nc1ccn(C2O[C@H](CO[P@](=O)(N[C@@H](C)C(=O)OC(C)C)Oc3ccccc3)[C@@H](OC(=O)CCCCCCCCCCCCCCCCC)[C@@]2(C)C#N)c(=O)n1` (some centres unmarked) [Compound 13], the EC50 with replicon cells (1b-Con1) was > 100 µM. For the same compound, in the data set on replicon cells, the Cytotoxicity is >100 µM.
`CC(C)OC(=O)[C@H](C)NP(=O)(OC[C@H]1O[C@@H](n2ccc(=O)[nH]c2=O)[C@](C)(C#N)[C@@H]1OC(=O)C1CCC1)Oc1ccccc1` (some centres unmarked) [Compound 25] registered an EC50 in the data set with replicon cells (1b-Con1) of 0.7 µM. Moreover, in the data set with replicon cells, the Cytotoxicity is >100 µM.
In turn, `C[C@@]1(N)[C@H](O)[C@@H](COP(=O)(O)OP(=O)(O)OP(=O)(O)O)O[C@H]1n1ccc(N)nc1=O` [Compound 34] gave a Ki in data set [1] of 0.05 µM.
